In brackets after ≈: the same amount, converted by molar mass.
How the values were obtained:
Trichomonas vaginalis = experiment: Antimicrobial activity against Trichomonas vaginalis after 3 to 48 hrs by trypan blue exclusion assay; format: functional
[1] = Spermicidal activity against human sperm by microscopic analysis; format: functional
[2] = target: Human immunodeficiency virus type 1 reverse transcriptase (Human immunodeficiency virus 1) (UniProt Q72547); experiment: Inhibition of HIV-1 reverse transcriptase using digoxigenin/biotin-labeled dUTP as substrate at 100 ug/ml incubated for 1 hr followed by compound washout measured after 1 hr by non-radioactive ELISA relative to control
HeLa = experiment: Cytotoxicity against human HeLa cells assessed as cell viability at 200 ug/ml after 24 hrs by lactate dehydrogenase release assay; format: cell-based
[3] = Toxicity against Lactobacillus acidophilus at 200 ug/ml after 24 hrs
Homo sapiens = species: Homo sapiens; experiment: Ratio of nonoxynol-9 MEC to compound MEC for human sperm; format: functional
[4] = Cmax in rabbit administered administered intravaginally after 1 hr; format: ADME, organism-based, Oryctolagus cuniculus; conditions: in vivo
[5] = Terminal half life in rabbit administered intravaginally after 1 hr; format: ADME, organism-based, Oryctolagus cuniculus; conditions: in vivo, read-out: beta t1/2 (converted)
[6] = Stability of the compound in simulated vaginal fluid at 100 ng/ml at pH 2 up to 1 hr by LC/MS/MS analysis; format: ADME; conditions: buffer, pH 2, 1 h

SMILES | MIC (Trichomonas vaginalis) [µg/mL] | inhibition [2] [%] | Stability [6] | MEC [1] [%] | Activity (HeLa) | Activity [3] | Ratio (Homo sapiens) | Cmax [4] [ng/mL] | half-life [5] [h]
CCCCSC(=S)N1CCN(C(=S)NCc2ccccc2)CC1 | 500 (≈ 1360 µM) | 14.2 | – | >2 | – | – | – | – | –
CCCSC(=S)N1CCN(C(=S)NCCc2ccccc2)CC1 | 250 (≈ 680 µM) | 28.4 | – | >2 | – | – | – | – | –
CCCCSC(=S)N1CCN(C(=S)Nc2cccnc2)CC1 | 250 (≈ 705 µM) | 14.9 | – | >2 | – | – | – | – | –
CCCCCCSC(=S)N1CCN(C(=S)Nc2cccnc2)CC1 | 125 (≈ 327 µM) | 26.1 | – | 0.05 | Non-toxic | Non-toxic | – | – | –
CCCCCCCCSC(=S)N1CCN(C(=S)NCc2ccccc2)CC1 | 250 (≈ 590 µM) | 36.5 | – | 1 | – | – | – | – | –
CCCCCCCCSC(=S)N1CCN(C(=S)NCCc2ccccc2)CC1 | 250 (≈ 571 µM) | 15.7 | – | >2 | – | – | – | – | –
CCCCCCSC(=S)N1CCN(C(=S)NCCc2ccccc2)CC1 | 250 (≈ 610 µM) | 14.8 | – | 1 | – | – | – | – | –
S=C(Nc1ccccc1)N1CCN(C(=S)SCc2ccccc2)CC1 | 250 (≈ 645 µM) | 21.9 | – | >2 | – | – | – | – | –
S=C(Nc1cccnc1)N1CCN(C(=S)SCc2ccccc2)CC1 | > 500 | 25.8 | – | 2 | – | – | – | – | –
CCCCSC(=S)N1CCN(C(=S)Nc2ccccc2)CC1 | 125 (≈ 354 µM) | 30.9 | – | >2 | – | – | – | – | –
S=C(NCc1ccccc1)N1CCN(C(=S)SCc2ccccc2)CC1 | 125 (≈ 311 µM) | 9.11 | – | >2 | – | – | – | – | –
CCCSC(=S)N1CCN(C(=S)Nc2ccccc2)CC1 | 500 (≈ 1470 µM) | 21.5 | – | >2 | – | – | – | – | –
CCCCCCSC(=S)N1CCN(C(=S)NCc2ccccc2)CC1 | 250 (≈ 632 µM) | 27.3 | – | >2 | – | – | – | – | –
CCCCSC(=S)N1CCN(C(=S)NCCc2ccccc2)CC1 | 250 (≈ 655 µM) | 13.5 | – | >2 | – | – | – | – | –
CCCCCCSC(=S)N1CCN(C(=S)Nc2ccccc2)CC1 | > 500 | 1.9 | – | >2 | – | – | – | – | –
CCCCCCCCCc1ccc(OCCOCCOCCOCCOCCOCCOCCOCCOCCO)cc1 [NONOXYNOL 9] | 20 (≈ 32.4 µM) | – | – | 0.05 | – | – | – | 4.87 | 1.45

Further lines, with some results ahead:

MIC (Trichomonas vaginalis) [µg/mL] | inhibition [2] [%] | Stability [6] | SMILES | MEC [1] [%] | Activity (HeLa) | Activity [3] | Ratio (Homo sapiens) | Cmax [4] [ng/mL] | half-life [5] [h]
125 (≈ 328 µM) | 27.8 | – | CCCCSC(=S)N1CCN(C(=S)NC(=O)c2ccccc2)CC1 | 1 | – | – | – | – | –
62.5 (≈ 150 µM) | 11.8 | – | S=C(NCCc1ccccc1)N1CCN(C(=S)SCc2ccccc2)CC1 | >2 | – | – | – | – | –
125 (≈ 305 µM) | 24 | – | CCCCCCCCSC(=S)N1CCN(C(=S)Nc2ccccc2)CC1 | 1 | – | – | – | – | –
125 (≈ 367 µM) | 35.4 | – | CCCSC(=S)N1CCN(C(=S)Nc2cccnc2)CC1 | 0.5 | – | – | – | – | –
62.5 (≈ 150 µM) | 12.3 | – | O=C(NC(=S)N1CCN(C(=S)SCc2ccccc2)CC1)c1ccccc1 | 1 | – | – | – | – | –
62.5 (≈ 152 µM) | 44.7 | – | CCCCCCCCSC(=S)N1CCN(C(=S)Nc2cccnc2)CC1 | 2 | – | – | – | – | –
15.6 (≈ 44 µM) | 20.6 | – | CCCSC(=S)N1CCN(C(=S)NCc2ccccc2)CC1 | 1 | – | – | – | – | –
7.78 (≈ 19 µM) | 23.2 | – | CCCCCCSC(=S)N1CCN(C(=S)NC(=O)c2ccccc2)CC1 | 0.05 | Non-toxic | Non-toxic | – | – | –
62.5 (≈ 170 µM) | 31.4 | – | CCCSC(=S)N1CCN(C(=S)NC(=O)c2ccccc2)CC1 | 0.025 | Non-toxic | Non-toxic | 2 | – | –
15.6 (≈ 35.5 µM) | 41.3 | Stable | CCCCCCCCSC(=S)N1CCN(C(=S)NC(=O)c2ccccc2)CC1 | 0.025 | Non-toxic | Non-toxic | 2 | – | –

— ChEMBL document CHEMBL3392985, “Dithiocarbamate-thiourea hybrids useful as vaginal microbicides also show reverse transcriptase inhibition: design, synthesis, docking and pharmacokinetic studies” (Bioorg Med Chem Lett, 2015)
